Measurements: US10183080B2, “Use of single dendritic wedge cell penetrating peptides to facilitate cellular delivery of nanoparticles and nanoparticles carrying cargos” (The Government of the United States of America, as …, priority 2016, dated 2019)
Where no end group is shown, it is not given here.

Assays:
[1] = Dynamic light scattering of QD-peptide conjugates; assay type: physicochemical; details: DLS; 5 peptides/QD; 50 nM QD, 0.1×PBS pH 7.4, 25° C.
Description: Dynamic Light Scattering (DLS) analysis was next undertaken to measure the QD-peptide conjugates hydrodynamic diameter (HD) and diffusion coefficients. Based on the values estimated above, assembly ratios of 5 peptides/QD were utilized during these measurements. The QD-(Arg9)1 conjugate's HD increases from the QD only value of 24.3±1 nm to ˜26.7±1.3 nm. HD values for the QD-(Arg9)2-8 conjugates are essentially the same within experimental error with an average value of 30.5±0.5 nm while the QD-(Arg9)16 increases to ˜33 nm. The diffusion coefficients follow the same trend but in an inverse manner from ˜17 to 13 μm^2/s. […] They support the notion that the peptides are attached via the His6 region to the QD surface and that the polyproline regions span through the PEG layer displaying the poly(Arg) motifs on the QD's surface through the surrounding PEG layer as intended in the synthetic design.
Dynamic light scattering (DLS) measurements were carried out using a ZetaSizer NanoSeries equipped with a HeNe laser source (λ=633 nm, Malvern Instruments Ltd, Worcestershire, UK) and analyzed using Dispersion Technology Software (DTS, Malvern Instruments Ltd). 50 nM concentration solutions of QDs were loaded into disposable cells, and data were collected at 25° C. All samples were prepared in 0.1×PBS buffer pH 7.4. For each sample, the autocorrelation function was the average of five runs of 10 s each and then repeated from three to six times. CONTIN analysis was used to determine the number versus hydrodynamic size profiles for the dispersions studied.

COS-1 cells [2] = assay: Cellular uptake of QD-dendritic peptide bioconjugates (fluorescence/confocal imaging); assay type: cell-based, African green monkey; details: 4 h incubation, 100 nM QD, 5 peptides/QD
Experimental: COS-1 cells were incubated for 4 h with 150 μL of a 100 nM solution of QDs assembled with the (Arg9)1-16 peptide series at ratio of 5/QD. This ratio was chosen since it represents a value where stochastic assembly events are minimized and correlates with ratios used in the DLS and SPR analysis. Cells were then incubated with the Transferrin Alexa647 endosomal marker for another hour prior to washing and processing which included counterstaining with the DAPI nuclear dye as described in the Methods section. FIGS. 4A through 4G present representative micrographs collected from these samples as projections of confocal stacks and side profiles of the cells. […] The bright yellow PL also observed in these images reflects colocalization of the green QDs with the red Alexa647 marker and confirms that the QDs are located in the endolysosomal system with a primary perinuclear localization as expected following endosomal vesicular uptake.
Kinetics of Poly(Arg)1-16-mediated QD uptake into cells were next evaluated. For this, 150 μL of 100 nM QDs assembled with a ratio of 5 peptides/QD were exposed to COS-1 cells for fixed time periods of 0.5, 1, 4, 8 and 24 h. […] Some delivery trends are visible from a comparison across these images. […] The amount and brightness of QD labeling in the endosomes directly correlates with the increase in the dendritic poly(Arg) display on the QD surface. Additionally, as the cellular exposure time increases, the amount of QD uptake increases proportionally as well. The measured PL intensity per cell from these representative images is plotted in FIG. 5B highlighting the general trends. Although some variability was noted (most likely due to the inherent noisy background found in such gross cellular studies), replicate samples reproduced the same generalized trends of increased poly(Arg)n dendritic branching and increased cellular exposure time leading to increased bioconjugate uptake and PL intensity. […]

COS-1 cells [3] = assay: Dendritic peptide-mediated delivery of cargo-decorated QDs; assay type: cell-based, African green monkey
Description: Lastly, as proof of concept, tests were made of the ability of the dendritic peptides to facilitate QD delivery, when the QDs are decorated with additional “cargo.” For this, following initial attachment of the (Arg9)n peptides to the QDs, they were further assembled with one of three prototypical cargos, a dye-labeled peptide, a drug-labeled peptide and a fluorescent protein. FIG. 8B presents a series of representative images that highlight some of the results achieved using 520 nm emitting QDs functionalized with a zwitterionic compact ligand 4; this ligand was used as it still allows larger proteins access to the QD surface for (His)n-binding unlike PEG which can sterically preclude them. […] Analogous to the data shown above, peptides with higher (Arg9)n dendrimeric branching, use of higher ratios of peptide/QD, and longer delivery times each served to facilitate higher levels of QD-cargo conjugate uptake into the cells (data not shown).
CdSe/ZnS core/shell QDs with emission maxima centered at 550 nm were synthesized as described. These were rendered hydrophilic through cap exchange of the native hydrophobic ligands with polyethylene glycol-(average MW 750 Da) appended dihydrolipoic acid ligands terminating in methoxy groups (DHLA-PEG750-OMe, see FIG. 1B) as described. For cargo delivery experiments, 520 nm emitting QDs functionalized with a zwitterionic compact ligand 4 (CL4) were utilized.
Aliquots of African green monkey kidney fibroblast-like COS-1 cells (CRL-1650) from American Type Culture Collection (ATCC, Manassas, Va., USA) were cultured in Dulbecco's Modified Eagle's Medium (DMEM, ATCC) supplemented with 10% (v/v) heat-inactivated fetal bovine serum (ATCC) and 1% antibiotic/antimycotic at 37° C. in a humidified atmosphere containing 95% air/5% CO2. Aliquots were allowed to adhere to the culture flask and reach 80% confluency, usually within 3 to 4 days. The monolayer was harvested by washing once with PBS, once with calcium/magnesium-free PBS, and incubating the monolayer with trypsin until detachment from the culture flask (usually within 5 min). Cells were seeded at 1-2×10^4 cells/well in Lab-Tek 8-well chambered No. 1 borosilicate cover glass system (Nalge Nunc, Rochester N.Y., USA) that had been previously coated for at least 4 h with fibronectin (5 μg/mL, Life Technologies). Cells were allowed to adhere to the bottom of the wells by further culture overnight at 37° C. in 95% air/5% CO2 air. Following overnight culture, media was removed and washed with 100 μL of 25 mM HEPES supplemented with 1 mM sodium pyruvate. […]
For cargo delivery experiments, mCherry fluorescent protein was prepared as described in the literature. […] Cytotoxicity assays were determined using the Vybrant® MTT Cell Proliferation Assay Kit. […]

Substance | HD (hydrodynamic diameter) [1] [nm] | QD uptake (QD PL in confocal micrographs) (COS-1 cells [2]) | comparative performance in cargo delivery experiments (COS-1 cells [3]; low valencies, short delivery times (data not shown)) | delivery of QDs decorated with ~25 doxorubicin labeled peptides (COS-1 cells [3]; ratio 0.5 peptide/QD, 1 h exposure, cargo MW ~50 kDa, 520 nm CL4 QDs) | delivery of ~30 mCherry per QD (COS-1 cells [3]; ratio 1 peptide/QD, 1 h exposure, cargo MW ~850 kDa, 520 nm CL4 QDs) | delivery of QDs decorated with ~30 Cy5 labeled peptides (COS-1 cells [3]; ratio 1 peptide/QD, 2 h exposure, cargo MW ~100 kDa/QD, 520 nm CL4 QDs)
[(RRRRRRRRRFG)-x-hex-P9G]2-K′WGH6 (peptide RRRRRRRRRFGPPPPPPPPPG; chain KWGHHHHHH) [(Arg9)2, generation 1 dendritic wedge peptide displaying two Arg9 motifs] | 30 ± 1.4 | – | – | – | – | –
[RRRRRRRRRFG]4-x-K′K′WP9G2H6 [(Arg9)4] | 30.7 ± 2.0 | – | – | – | – | –
[RRRRRRRRRFG]8-x-K′K′K′WP9G2H6 [(Arg9)8] | 30.9 ± 1.4 | most intense QD PL | worked best | allowed delivery | allowed delivery | facilitated delivery
[RRRRRRRRRFG]16-x-K′K′K′K′WP9G2H6 [(Arg9)16] | 32.7 ± 4.9 | most intense QD PL | – | – | – | –
[RRRRRRRRRFG]-x-hex-hex-WP9G2H6 (RRRRRRRRRFGWPPPPPPPPPGGHHHHHH; not fully specified (residue 11); also: oxime bond (x) between G11 and hexamine spacers) [(Arg9)1, functions as control] | 26.7 ± 1.3 | no appreciable QD uptake | – | – | – | –
